Experimental data taken from ChEMBL document CHEMBL5696442, “Discovery of type II inhibitors of TGFβ-activated kinase 1 (TAK1) and mitogen-activated protein kinase kinase kinase kinase 2 (MAP4K2)” (J Med Chem, 2015).
Calls of active or inactive are those of the source. The calls are words filed in the database; no cut-off is given here.

Tests used:
[1] = target: Ribosomal protein S6 kinase alpha-1 (Homo sapiens) (UniProt Q15418); test: Inhibition of RSK1 domain2 Lys2 labeling site in human Huh-7 cell lysate at 1 uM by KiNativ Profiling analysis relative to control; assay type: subcellular
[2] = target: T1, Aurora kinase C (Homo sapiens) (UniProt Q9UQB9); test: Inhibition of AurC ATP labeling site in human Huh-7 cell lysate at 1 uM by KiNativ Profiling analysis relative to control; assay type: subcellular
T1 sequence (whole entry): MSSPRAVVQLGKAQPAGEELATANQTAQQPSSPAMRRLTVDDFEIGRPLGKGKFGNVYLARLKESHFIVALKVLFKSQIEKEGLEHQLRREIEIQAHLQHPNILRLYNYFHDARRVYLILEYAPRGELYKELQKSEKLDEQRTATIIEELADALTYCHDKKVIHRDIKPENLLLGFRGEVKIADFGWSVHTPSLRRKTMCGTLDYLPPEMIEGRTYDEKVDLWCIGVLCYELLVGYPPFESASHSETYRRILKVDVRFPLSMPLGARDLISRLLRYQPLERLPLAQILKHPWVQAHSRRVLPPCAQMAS

[3] = target: Serine/threonine-protein kinase WNK3 (Homo sapiens) (UniProt Q9BYP7); test: Inhibition of Wnk3 Lys2 labeling site in human Huh-7 cells at 1 uM by KiNativ Profiling analysis relative to control; assay type: cell-based
[4] = target: MAP/microtubule affinity-regulating kinase 3 (Homo sapiens) (UniProt P27448); test: Inhibition of MARK3 Lys2 labeling site in human Huh-7 cell lysate at 1 uM by KiNativ Profiling analysis relative to control; assay type: subcellular
[5] = target: T2, Serine/threonine-protein kinase LATS2 (Homo sapiens) (UniProt Q9NRM7); test: Inhibition of LATS2 (unknown origin) at 10 uM by Ambit Kinomescan binding assay relative to control
T2 sequence (whole entry): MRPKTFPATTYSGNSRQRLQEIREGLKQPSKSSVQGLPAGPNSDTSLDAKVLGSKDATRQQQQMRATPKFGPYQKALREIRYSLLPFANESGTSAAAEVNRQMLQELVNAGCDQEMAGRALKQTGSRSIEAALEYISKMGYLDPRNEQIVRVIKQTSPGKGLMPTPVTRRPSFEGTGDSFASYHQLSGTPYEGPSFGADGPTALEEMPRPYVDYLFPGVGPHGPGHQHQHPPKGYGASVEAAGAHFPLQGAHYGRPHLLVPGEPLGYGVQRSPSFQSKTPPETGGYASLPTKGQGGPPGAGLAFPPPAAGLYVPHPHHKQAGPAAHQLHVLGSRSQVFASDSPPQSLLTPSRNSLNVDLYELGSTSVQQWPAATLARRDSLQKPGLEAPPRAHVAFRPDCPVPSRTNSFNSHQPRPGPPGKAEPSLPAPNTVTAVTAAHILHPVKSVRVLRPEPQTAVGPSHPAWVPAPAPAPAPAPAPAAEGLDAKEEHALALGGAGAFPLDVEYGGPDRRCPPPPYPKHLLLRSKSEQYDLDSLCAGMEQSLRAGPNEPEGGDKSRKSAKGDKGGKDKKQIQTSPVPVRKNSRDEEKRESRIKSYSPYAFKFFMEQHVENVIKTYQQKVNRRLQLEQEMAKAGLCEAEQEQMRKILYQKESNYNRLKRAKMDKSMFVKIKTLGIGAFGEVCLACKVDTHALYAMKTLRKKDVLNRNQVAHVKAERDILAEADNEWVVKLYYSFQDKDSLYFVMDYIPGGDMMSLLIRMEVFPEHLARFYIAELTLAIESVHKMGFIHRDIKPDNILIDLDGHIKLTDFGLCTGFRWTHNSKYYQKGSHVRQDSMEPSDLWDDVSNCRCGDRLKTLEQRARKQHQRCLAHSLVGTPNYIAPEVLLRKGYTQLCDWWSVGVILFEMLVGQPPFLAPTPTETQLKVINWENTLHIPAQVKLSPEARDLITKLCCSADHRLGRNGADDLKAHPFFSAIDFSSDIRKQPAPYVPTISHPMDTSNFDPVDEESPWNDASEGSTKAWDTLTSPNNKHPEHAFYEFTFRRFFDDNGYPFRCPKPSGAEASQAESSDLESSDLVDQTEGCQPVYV

[6] = target: Microtubule-associated serine/threonine-protein kinase 2 (Homo sapiens) (UniProt Q6P0Q8); test: Inhibition of MAST2 Lys2 labeling site in human A-375 cells at 0.5 uM by KiNativ Profiling analysis relative to control; assay type: cell-based
[7] = target: Serine/threonine-protein kinase BRSK2 (Homo sapiens) (UniProt Q8IWQ3); test: Inhibition of BRSK2 (unknown origin) at 10 uM by Ambit Kinomescan binding assay
[8] = target: Ribosomal protein S6 kinase alpha-6 (Homo sapiens) (UniProt Q9UK32); test: Inhibition of C-terminal RPS6KA6 kinase domain 2 (unknown origin) at 10 uM by Ambit Kinomescan binding assay
Chain of Ribosomal protein S6 kinase alpha-6 (Homo sapiens) (Q9UK32 whole entry, the tested form may be a part): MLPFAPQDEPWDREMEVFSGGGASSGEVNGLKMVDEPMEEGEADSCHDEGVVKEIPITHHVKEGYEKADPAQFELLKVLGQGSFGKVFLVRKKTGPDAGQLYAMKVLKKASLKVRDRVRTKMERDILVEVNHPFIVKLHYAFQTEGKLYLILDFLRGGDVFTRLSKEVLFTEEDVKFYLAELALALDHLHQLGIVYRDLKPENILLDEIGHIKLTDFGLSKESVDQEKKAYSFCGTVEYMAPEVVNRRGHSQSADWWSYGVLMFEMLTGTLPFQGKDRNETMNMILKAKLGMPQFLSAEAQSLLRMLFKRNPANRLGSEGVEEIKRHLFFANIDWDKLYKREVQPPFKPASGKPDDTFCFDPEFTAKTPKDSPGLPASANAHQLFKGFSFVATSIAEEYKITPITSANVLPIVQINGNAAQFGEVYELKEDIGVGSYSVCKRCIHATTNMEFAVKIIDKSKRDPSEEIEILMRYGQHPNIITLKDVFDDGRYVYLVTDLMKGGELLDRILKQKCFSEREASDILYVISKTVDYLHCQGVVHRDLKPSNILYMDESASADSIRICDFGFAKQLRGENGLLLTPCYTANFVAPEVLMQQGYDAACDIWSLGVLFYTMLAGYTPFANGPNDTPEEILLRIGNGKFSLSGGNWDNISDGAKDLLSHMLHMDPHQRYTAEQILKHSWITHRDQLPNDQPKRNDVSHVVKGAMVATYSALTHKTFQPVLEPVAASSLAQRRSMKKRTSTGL

Chain of MAP/microtubule affinity-regulating kinase 3 (Homo sapiens) (P27448 whole entry, looked up): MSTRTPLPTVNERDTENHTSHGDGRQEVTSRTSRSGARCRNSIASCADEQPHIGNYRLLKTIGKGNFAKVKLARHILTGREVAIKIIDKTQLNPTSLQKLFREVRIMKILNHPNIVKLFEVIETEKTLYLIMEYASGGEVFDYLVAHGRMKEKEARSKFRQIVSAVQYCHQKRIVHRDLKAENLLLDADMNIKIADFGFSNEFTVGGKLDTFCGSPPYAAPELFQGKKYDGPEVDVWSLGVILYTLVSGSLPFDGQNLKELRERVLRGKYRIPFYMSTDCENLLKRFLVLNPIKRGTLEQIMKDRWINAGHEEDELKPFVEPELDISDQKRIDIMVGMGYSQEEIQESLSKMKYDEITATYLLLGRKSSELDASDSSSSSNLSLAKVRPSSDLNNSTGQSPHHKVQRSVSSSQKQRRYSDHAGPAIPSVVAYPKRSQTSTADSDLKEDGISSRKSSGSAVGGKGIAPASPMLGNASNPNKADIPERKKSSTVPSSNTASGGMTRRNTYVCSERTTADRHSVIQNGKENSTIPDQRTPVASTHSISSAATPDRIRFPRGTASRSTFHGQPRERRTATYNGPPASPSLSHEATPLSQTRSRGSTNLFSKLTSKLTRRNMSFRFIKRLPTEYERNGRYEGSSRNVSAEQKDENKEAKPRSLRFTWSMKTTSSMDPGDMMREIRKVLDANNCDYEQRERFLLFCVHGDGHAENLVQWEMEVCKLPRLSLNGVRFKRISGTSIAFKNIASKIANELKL
Chain of Serine/threonine-protein kinase BRSK2 (Homo sapiens) (Q8IWQ3 whole entry, the tested form may be a part): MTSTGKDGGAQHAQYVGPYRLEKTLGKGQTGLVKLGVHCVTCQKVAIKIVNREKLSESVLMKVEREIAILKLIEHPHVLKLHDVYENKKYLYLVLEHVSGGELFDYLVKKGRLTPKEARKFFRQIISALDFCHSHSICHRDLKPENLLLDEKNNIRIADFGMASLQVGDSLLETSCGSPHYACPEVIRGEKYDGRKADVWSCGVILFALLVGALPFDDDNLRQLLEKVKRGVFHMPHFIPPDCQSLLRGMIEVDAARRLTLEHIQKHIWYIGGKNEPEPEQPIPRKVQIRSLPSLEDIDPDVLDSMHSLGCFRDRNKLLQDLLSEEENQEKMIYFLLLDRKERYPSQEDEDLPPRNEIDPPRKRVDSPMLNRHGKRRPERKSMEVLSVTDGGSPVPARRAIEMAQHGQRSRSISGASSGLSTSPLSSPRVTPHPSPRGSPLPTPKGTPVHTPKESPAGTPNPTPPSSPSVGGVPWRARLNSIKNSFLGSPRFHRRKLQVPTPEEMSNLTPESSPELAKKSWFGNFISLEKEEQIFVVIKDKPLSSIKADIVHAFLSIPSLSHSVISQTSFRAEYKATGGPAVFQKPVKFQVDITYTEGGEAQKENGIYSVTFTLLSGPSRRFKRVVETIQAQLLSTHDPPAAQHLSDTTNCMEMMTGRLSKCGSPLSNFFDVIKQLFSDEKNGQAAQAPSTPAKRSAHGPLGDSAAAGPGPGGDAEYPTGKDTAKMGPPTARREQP
Chain of Serine/threonine-protein kinase WNK3 (Homo sapiens) (Q9BYP7 whole entry): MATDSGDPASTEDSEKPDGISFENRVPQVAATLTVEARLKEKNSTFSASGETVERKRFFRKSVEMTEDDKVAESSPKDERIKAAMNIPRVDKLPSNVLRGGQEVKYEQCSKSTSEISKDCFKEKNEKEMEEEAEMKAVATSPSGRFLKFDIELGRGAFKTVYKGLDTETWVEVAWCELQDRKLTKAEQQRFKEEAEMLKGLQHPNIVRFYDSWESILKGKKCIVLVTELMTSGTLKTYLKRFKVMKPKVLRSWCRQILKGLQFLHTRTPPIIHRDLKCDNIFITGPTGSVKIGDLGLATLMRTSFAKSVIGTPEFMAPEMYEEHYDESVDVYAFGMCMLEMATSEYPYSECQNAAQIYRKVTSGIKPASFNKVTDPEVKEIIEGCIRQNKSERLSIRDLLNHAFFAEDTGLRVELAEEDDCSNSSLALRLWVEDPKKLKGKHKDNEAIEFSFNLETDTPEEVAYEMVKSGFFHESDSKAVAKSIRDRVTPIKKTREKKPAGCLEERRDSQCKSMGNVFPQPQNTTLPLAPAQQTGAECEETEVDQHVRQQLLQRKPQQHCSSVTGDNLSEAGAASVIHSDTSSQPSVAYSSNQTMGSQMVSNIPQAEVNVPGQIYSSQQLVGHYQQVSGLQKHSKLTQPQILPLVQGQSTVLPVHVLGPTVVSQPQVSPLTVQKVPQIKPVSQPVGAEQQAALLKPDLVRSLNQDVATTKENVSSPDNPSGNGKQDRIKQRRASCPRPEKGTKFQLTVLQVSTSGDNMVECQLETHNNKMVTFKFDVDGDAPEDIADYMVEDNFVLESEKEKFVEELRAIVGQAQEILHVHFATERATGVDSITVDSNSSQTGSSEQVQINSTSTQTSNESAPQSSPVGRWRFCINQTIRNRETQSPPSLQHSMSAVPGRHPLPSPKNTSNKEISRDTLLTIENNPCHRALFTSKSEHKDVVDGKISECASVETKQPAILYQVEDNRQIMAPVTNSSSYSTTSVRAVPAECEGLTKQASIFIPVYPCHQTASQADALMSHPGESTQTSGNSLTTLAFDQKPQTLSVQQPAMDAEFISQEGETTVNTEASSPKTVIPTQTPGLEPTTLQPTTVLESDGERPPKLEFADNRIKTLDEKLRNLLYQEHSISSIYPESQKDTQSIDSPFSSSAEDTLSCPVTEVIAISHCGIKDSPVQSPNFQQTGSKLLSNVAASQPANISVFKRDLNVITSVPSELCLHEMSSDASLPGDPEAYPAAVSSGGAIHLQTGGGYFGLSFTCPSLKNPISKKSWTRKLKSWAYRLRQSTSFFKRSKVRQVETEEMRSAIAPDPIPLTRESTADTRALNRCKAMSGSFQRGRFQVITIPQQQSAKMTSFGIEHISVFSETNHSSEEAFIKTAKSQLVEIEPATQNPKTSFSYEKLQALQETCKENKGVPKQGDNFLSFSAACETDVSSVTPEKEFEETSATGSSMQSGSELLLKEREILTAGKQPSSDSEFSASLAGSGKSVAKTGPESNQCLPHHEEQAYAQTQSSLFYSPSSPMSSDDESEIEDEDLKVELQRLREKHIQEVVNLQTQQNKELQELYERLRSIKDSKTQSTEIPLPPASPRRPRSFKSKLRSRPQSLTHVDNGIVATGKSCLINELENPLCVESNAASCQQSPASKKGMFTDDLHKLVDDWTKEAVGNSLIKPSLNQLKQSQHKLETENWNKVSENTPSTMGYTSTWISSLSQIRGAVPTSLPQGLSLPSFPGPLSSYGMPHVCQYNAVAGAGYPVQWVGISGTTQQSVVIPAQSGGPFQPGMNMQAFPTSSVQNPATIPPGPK
Chain of Ribosomal protein S6 kinase alpha-1 (Homo sapiens) (Q15418 whole entry, the tested form may be a part): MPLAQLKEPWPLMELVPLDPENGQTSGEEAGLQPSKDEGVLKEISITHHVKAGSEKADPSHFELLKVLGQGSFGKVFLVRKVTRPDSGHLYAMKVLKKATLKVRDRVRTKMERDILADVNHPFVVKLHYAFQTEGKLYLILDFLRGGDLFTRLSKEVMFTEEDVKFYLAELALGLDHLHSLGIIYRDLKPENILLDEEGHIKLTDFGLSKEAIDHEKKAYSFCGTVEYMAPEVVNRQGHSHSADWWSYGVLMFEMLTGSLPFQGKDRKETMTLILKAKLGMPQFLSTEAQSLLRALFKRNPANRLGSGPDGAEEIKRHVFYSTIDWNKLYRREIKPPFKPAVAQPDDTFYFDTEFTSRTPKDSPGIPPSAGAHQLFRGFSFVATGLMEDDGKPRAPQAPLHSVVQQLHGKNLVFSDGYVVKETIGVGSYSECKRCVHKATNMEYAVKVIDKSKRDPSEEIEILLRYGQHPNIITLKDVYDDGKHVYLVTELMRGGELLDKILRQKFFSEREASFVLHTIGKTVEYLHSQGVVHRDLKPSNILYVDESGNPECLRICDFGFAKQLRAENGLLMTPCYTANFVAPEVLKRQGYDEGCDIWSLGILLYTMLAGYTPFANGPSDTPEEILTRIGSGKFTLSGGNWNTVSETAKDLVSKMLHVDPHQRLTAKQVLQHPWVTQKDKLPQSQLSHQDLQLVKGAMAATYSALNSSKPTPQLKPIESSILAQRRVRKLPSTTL

**Q.** Which inhibition [1] does the source give for `CNc1cc(Oc2cc(C(=O)Nc3cc(N4CCN(C)CC4)cc(C(F)(F)F)c3)ccc2C)ncn1` here?
**A.** -2%

**Q.** And the inhibition [2]?
**A.** 2.5%

**Q.** What about the inhibition [3] of the same compound?
**A.** 15.3%

**Q.** And the inhibition [4]?
**A.** -4.1%

**Q.** What does the source list for `CCN1CCN(Cc2ccc(NC(=O)c3ccc(C)c(Oc4ccnc5[nH]ccc45)c3)cc2C(F)(F)F)CC1`?
**A.** inhibition [5]: 13%; inhibition [6]: 16.1%; inhibition [7]: inactive; inhibition [8]: inactive
